The text below walks through data of ChEMBL document CHEMBL1140480, “Amino(methyl) pyrrolidines as novel scaffolds for factor Xa inhibitors” (Bioorg Med Chem Lett, 2007).

Where “and” joins values, the source holds several entries; their conditions need not be identical. Equal values may be shown once.

Series [1] concerns the target Coagulation factor X (Homo sapiens, UniProt P00742). The series can be described thus: Inhibition of F10a.
Series [2] relates to Plasma. Nature of the series: Anticoagulant activity in human plasma assessed as concentration required to double prothrombin time. Format: functional.
Series [3] deals with T1, Cytochrome P450 1A2 (Homo sapiens, UniProt P05177).
T1 sequence (P05177 whole entry): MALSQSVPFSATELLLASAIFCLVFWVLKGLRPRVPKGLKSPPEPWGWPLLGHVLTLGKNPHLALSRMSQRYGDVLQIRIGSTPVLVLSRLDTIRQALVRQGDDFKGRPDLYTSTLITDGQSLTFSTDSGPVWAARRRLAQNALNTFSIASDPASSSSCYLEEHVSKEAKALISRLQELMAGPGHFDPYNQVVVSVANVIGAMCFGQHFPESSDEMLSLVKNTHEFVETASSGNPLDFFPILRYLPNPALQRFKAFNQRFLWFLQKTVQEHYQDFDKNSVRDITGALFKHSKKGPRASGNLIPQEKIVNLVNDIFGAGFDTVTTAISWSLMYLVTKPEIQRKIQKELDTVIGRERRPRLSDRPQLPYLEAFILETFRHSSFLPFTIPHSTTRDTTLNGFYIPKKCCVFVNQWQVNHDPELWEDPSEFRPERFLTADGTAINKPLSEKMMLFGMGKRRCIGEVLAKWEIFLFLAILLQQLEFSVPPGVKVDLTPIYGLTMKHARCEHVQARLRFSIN
Nature of the series: Inhibition of CYP1A2. It is filed as ADME.

Series [4] in a line: Permeability from apical to basolateral side of the Caco-2 cell membrane at pH 6.5. It is filed as ADME, cell-based. The following applies: human, Caco-2, pH 6.5; read-out: permeability. For orientation: Caco-2 cells form a polarised layer with tight junctions and transporters.
The target in series [5] is Cytochrome P450 2D6 (Homo sapiens, UniProt P10635). The series can be described thus: Inhibition of CYP2D6. It is filed as ADME.
Series [6] has as its target Plasma kallikrein (Homo sapiens) (UniProt P03952). The series can be described thus: Inhibition of plasma kallikrein. Format: cell-free.
For series [7], the target named is Cytochrome P450 3A4 (Homo sapiens, UniProt P08684). Nature of the series: Inhibition of CYP3A4. It is filed as ADME.
In series [8] the target is Trypsin (Homo sapiens) (UniProt P07477+P07478+P35030). Nature of the series: Inhibition of trypsin. Format: protein assay.
In series [9] the target is Cytochrome P450 2C9 (Homo sapiens, UniProt P11712). The series can be described thus: Inhibition of CYP2C9. Format: ADME.
In series [10] the target is Prothrombin (Homo sapiens) (UniProt P00734). Nature of the series: Inhibition of thrombin.
The target in series [11] is Cytochrome P450 2C19 (Homo sapiens, UniProt P33261). Nature of the series: Inhibition of CYP2C19. It is filed as ADME.
The target in series [12] is T2, Coagulation factor VII (Homo sapiens) (UniProt P08709).
T2 sequence (whole entry): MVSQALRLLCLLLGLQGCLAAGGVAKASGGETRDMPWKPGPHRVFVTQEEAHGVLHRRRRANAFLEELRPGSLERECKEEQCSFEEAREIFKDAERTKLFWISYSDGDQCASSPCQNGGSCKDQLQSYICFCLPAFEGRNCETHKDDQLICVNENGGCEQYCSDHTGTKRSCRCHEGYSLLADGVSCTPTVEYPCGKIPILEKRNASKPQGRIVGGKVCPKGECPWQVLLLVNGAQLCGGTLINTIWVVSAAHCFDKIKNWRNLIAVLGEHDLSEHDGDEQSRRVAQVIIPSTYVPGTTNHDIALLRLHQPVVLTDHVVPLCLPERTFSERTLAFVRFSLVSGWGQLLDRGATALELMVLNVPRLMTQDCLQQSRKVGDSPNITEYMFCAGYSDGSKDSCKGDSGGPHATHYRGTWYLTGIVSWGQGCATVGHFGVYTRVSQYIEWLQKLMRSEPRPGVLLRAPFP
Nature of the series: Inhibition of F7a.

Series [13] deals with Coagulation factor IX (Homo sapiens) (UniProt P00740). Nature of the series: Inhibition of F9a.
Coagulation factor IX (Homo sapiens), sequence (P00740 47-191 limits assumed): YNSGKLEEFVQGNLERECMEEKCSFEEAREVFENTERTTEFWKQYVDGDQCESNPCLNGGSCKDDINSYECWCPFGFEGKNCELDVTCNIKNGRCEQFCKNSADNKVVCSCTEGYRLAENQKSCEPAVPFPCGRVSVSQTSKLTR
Coagulation factor IX (Homo sapiens), sequence (P00740 227-461 limits assumed): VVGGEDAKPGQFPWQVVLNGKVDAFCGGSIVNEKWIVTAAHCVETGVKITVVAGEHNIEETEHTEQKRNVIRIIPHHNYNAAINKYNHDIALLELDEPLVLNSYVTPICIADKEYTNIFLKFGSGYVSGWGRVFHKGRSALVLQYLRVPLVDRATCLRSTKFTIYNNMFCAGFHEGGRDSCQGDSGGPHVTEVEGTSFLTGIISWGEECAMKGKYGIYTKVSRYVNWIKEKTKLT

Coagulation factor X, sequence (P00742 41-179 limits assumed): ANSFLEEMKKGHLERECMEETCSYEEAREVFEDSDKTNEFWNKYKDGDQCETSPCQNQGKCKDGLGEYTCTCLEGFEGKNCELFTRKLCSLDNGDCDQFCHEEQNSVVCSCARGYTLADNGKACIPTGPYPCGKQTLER
Coagulation factor X, sequence (P00742 235-488 limits assumed): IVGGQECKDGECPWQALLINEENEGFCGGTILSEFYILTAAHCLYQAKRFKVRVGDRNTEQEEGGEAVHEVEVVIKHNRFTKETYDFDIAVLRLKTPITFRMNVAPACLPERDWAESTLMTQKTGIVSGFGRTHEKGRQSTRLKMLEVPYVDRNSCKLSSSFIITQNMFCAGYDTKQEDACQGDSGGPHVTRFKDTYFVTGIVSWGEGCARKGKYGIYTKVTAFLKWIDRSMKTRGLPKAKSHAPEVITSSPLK
Cytochrome P450 3A4, sequence (P08684 whole entry): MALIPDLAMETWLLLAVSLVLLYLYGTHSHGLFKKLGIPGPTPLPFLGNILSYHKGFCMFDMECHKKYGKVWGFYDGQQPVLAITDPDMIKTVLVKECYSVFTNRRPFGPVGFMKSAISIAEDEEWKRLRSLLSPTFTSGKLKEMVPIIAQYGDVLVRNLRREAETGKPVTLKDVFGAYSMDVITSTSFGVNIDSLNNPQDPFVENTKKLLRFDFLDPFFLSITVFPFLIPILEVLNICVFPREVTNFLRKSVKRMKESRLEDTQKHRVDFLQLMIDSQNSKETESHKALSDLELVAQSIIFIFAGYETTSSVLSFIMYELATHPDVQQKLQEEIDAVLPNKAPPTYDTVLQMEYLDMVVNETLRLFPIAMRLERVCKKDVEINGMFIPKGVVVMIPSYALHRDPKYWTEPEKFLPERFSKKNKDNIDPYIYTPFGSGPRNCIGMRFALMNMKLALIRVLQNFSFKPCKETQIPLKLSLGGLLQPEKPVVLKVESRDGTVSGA
Plasma kallikrein (Homo sapiens), sequence (P03952 20-390 limits assumed): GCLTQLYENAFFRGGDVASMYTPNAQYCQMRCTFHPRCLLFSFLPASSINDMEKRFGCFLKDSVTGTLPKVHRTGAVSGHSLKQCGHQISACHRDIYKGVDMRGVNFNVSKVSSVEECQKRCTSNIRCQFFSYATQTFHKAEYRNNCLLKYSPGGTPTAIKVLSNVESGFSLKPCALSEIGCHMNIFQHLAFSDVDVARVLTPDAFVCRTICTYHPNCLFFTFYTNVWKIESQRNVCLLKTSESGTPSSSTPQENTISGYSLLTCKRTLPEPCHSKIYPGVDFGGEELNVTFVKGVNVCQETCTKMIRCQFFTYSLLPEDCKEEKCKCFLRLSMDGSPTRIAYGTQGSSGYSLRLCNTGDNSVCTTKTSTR
Plasma kallikrein (Homo sapiens), sequence (P03952 391-638 limits assumed): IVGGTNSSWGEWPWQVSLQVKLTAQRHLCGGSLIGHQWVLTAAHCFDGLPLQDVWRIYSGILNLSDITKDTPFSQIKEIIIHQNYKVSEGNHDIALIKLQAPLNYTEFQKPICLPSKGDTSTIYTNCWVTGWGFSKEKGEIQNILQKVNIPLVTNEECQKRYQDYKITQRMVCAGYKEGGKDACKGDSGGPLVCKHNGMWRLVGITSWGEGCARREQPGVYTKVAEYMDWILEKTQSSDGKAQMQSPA
Cytochrome P450 2D6, sequence (P10635 whole entry): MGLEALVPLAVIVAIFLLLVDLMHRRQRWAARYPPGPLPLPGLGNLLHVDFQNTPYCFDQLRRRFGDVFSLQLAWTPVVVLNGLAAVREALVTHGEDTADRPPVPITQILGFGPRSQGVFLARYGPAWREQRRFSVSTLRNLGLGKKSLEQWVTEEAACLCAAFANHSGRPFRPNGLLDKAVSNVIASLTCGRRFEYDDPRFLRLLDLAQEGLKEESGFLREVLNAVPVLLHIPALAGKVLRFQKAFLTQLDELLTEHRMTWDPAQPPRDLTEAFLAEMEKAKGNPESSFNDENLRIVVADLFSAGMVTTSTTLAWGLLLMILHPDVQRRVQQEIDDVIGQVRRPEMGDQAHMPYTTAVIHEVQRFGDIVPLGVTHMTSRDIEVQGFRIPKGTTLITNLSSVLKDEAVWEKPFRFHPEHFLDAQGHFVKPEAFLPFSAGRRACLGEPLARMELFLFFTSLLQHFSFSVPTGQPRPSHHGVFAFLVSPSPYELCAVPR
Cytochrome P450 2C9, sequence (P11712 whole entry): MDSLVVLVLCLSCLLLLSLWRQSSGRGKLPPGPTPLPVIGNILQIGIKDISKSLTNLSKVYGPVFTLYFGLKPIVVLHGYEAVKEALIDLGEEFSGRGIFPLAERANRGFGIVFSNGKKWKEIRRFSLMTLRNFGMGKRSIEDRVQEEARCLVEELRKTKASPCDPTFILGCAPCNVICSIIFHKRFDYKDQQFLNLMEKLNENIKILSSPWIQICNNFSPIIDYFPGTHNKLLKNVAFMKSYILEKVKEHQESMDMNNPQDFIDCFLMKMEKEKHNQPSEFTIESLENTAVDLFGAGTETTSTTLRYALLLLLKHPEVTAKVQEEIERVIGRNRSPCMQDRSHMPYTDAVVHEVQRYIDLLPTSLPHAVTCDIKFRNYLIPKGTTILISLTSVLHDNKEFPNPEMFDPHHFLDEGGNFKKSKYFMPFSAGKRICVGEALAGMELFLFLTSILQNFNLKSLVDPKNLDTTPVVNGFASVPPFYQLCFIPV
Cytochrome P450 2C19, sequence (P33261 whole entry): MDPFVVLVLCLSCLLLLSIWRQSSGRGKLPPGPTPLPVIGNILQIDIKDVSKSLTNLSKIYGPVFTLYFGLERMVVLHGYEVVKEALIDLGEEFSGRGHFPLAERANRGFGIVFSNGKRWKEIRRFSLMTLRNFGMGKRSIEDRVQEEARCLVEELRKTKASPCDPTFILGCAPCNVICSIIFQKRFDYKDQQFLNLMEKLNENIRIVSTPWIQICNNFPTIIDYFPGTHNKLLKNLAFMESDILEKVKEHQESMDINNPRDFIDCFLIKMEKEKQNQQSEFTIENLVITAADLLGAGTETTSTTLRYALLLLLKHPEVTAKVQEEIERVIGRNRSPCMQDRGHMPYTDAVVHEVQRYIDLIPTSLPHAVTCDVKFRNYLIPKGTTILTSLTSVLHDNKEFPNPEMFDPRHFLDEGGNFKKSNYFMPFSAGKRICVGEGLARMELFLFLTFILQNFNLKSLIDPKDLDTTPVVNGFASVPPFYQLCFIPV

One may read the IC50 as the point on the concentration scale where inhibition reaches its midpoint. On to `O=C(N1CC[C@H](CNS(=O)(=O)c2ccc(-c3ccc(Cl)s3)s2)C1)N1CCC[C@H]1CN1CCCC1`, for which the IC50 in series [1] was determined as 40 nM. For the same molecule, in series [2], the Activity was 13 µM.
`O=C(C(=O)N1CCC[C@H]1CN1CCCC1)N1CC[C@H](CNS(=O)(=O)/C=C/c2ccc(Cl)s2)C1`: the 50% inhibitory concentration (IC50) in [1] amounted to 70 nM. The Activity in series [2] worked out at 8 µM.
In the case of `O=C(C1CCN(c2ccncc2)CC1)N1CC[C@H](CNS(=O)(=O)/C=C/c2ccc(Cl)s2)C1`, in [2], the Activity worked out at 13 µM.
With `O=C(C1CCN(c2ccncc2)CC1)N1CC[C@@H](CNS(=O)(=O)c2ccc(-c3ccc(Cl)s3)s2)C1`, the IC50 in [3] is above 20000 nM; in [1], 18 nM; in series [5] it was 7970 nM; in series [7], 2330 nM and 1000 nM; in series [9] it was 1470 nM; in series [11], 14100 nM. Moreover, in series [4], the Papp A→B was below 1.5 ×10⁻⁶ cm/s. Besides, the Activity is above 30 µM in series [6]; 6.8 µM in [2]; above 30 µM in [8]; above 30 µM in [10]; above 30 µM in series [12]; above 30 µM in series [13].
`O=C(C1CCN(c2ccncc2)CC1)N1CCC(CNS(=O)(=O)c2cc3ccc(Cl)cc3s2)C1` (racemic): the IC50 in series [1] stood at 255 nM. For the same molecule, the Activity in series [2] amounted to 45 µM.
As to `O=C(C(=O)N1CCC[C@H]1CN1CCCC1)N1CC[C@@H](CNS(=O)(=O)/C=C/c2ccc(Cl)s2)C1`, it took 436 nM to reach half-maximal inhibition in [1] (IC50).
For the molecule `O=C(N1CCCC1)N1CC[C@H](CNS(=O)(=O)c2ccc(-c3ccc(Cl)s3)s2)C1`, the IC50 in [1] was 130 nM. Further, the Activity in series [2] is 130 µM.
Regarding `Cc1nccc(N2CCC(C(=O)N3CC[C@@H](CNS(=O)(=O)/C=C/c4ccc(Cl)s4)C3)CC2)n1`, it took 230 nM to reach half-maximal inhibition in series [1] (IC50). The Activity in series [2] amounted to 28 µM.
In the same order, the values of `O=C(C1CCN(c2ccncc2)CC1)N1CC[C@@H](CNS(=O)(=O)/C=C/c2ccc(Br)s2)C1` are 22 nM and 5 µM.
In series [1], `Cc1nccc(N2CCC(C(=O)N3CC[C@H](CNS(=O)(=O)/C=C/c4ccc(Cl)s4)C3)CC2)n1` displayed an IC50 of 718 nM.
Same read-out and setting: the value for `NS(=O)(=O)c1ccccc1-c1ccc(C(=O)N2CC[C@@H](CNS(=O)(=O)/C=C/c3ccc(Cl)s3)C2)cc1` was 1900 nM.
Molecule `O=C(C1CCN(c2ccncc2)CC1)N1CCC(CNS(=O)(=O)/C=C/c2ccc(Br)s2)C1` (racemic) came in with a concentration for half-maximal inhibition (IC50) in series [1] of 86 nM. In addition, in [2], the Activity stood at 8.7 µM.
As for `O=C(C1CCN(c2ccncc2)CC1)N1CCC(CNS(=O)(=O)c2ccc3ccccc3c2)C1` (racemic), in series [1], the IC50 was 1100 nM.
For the molecule `O=C(c1ccc(-n2ccnc2)cc1)N1CC[C@H](CNS(=O)(=O)/C=C/c2ccc(Cl)s2)C1`, half-maximal inhibition in [1] (IC50) required 1300 nM.
As for `Cc1nccc(N2CCC(C(=O)N3CC[C@@H](CNS(=O)(=O)c4ccc(-c5ccc(Cl)s5)s4)C3)CC2)n1`, in [1], the half-maximal inhibitory concentration (IC50) was found to be 61 nM. In [2], the Activity was found to be 50 µM.
As to `O=C(C1CCN(c2ccncc2)CC1)N1CCC(CNS(=O)(=O)/C=C/c2cccc(Cl)c2)C1` (racemic), in [1], it took 4300 nM to reach half-maximal inhibition (IC50).
In the case of `O=C(C1CCN(c2ccncc2)CC1)N1CCC(CNS(=O)(=O)c2ccc3cc(Cl)ccc3c2)C1` (racemic), the IC50 in series [1] came to 247 nM. For the same molecule, the Activity in series [2] was 40 µM.
In turn, `O=C(C1CCN(c2ccncc2)CC1)N1CCC(CNS(=O)(=O)/C=C/c2ccc(Cl)cc2)C1` (racemic) had an IC50 in [1] of 493 nM. Besides, in series [2], the Activity worked out at 32 µM.
For the molecule `O=C(C1CCN(c2ccncc2)CC1)N1CC[C@@H](CNS(=O)(=O)/C=C/c2ccc(Cl)s2)C1`, the Activity in [2] was found to be 1.7 µM.
